In patent publication US9018248B2, “Fatty acid derivatives of catechins and methods of their use” (Genesis Group Inc., priority 2010, dated 2015):
pIC50: −log10 of the molar value.

Tests used:
[1] = Bulk oil system, stripped corn oil, Rancimat; conditions: PF=IPsample/IPcontrol; Rancimat 100° C., 1 μmol in 3 g oil
Description: One milliliter of EGCG and its derivatives dissolved in ethanol (1 μmol/ml) was transferred into a reaction vessel, followed by evaporation of the solvent to dryness under a stream of nitrogen. To each vessel (an empty vessel was used as control) 3 g of stripped corn oil (devoid of endogenous antioxidants) were added. The evaluation was carried out under accelerated oxidation in a Rancimat (Metrohm Model 743, Herisau, Switzerland) conditions at 100° C. with an air flow rate of 20 l/h. Lipid oxidation in the absence and presence of test compounds was monitored by changes in electrical conductivity, arising from the formation of volatile oxidation products. The induction periods (IP, time to reach a sudden increase in oxidation rate) were recorded. […] Antioxidant activity was interpreted as protection factor (PF), which was calculated as follow. PF=IPsample/IPcontrol where, IPsample and IPcontrol represent induction periods for the oil with and without test compounds, respectively. Discussion

[2] = target: HCV NS3/4A protease (Hepatitis C virus genotype 1a, UniProt P27958); assay: Inhibition against HCV protease; format: biochemical; conditions: for pIC50: HCV NS3/4A protease 0.5 μg/ml, 30 min, room temperature; for HCV protease inhibitory activity relative to embelin: fold stronger than embelin
Chain of HCV NS3/4A protease (P27958 1027-1657): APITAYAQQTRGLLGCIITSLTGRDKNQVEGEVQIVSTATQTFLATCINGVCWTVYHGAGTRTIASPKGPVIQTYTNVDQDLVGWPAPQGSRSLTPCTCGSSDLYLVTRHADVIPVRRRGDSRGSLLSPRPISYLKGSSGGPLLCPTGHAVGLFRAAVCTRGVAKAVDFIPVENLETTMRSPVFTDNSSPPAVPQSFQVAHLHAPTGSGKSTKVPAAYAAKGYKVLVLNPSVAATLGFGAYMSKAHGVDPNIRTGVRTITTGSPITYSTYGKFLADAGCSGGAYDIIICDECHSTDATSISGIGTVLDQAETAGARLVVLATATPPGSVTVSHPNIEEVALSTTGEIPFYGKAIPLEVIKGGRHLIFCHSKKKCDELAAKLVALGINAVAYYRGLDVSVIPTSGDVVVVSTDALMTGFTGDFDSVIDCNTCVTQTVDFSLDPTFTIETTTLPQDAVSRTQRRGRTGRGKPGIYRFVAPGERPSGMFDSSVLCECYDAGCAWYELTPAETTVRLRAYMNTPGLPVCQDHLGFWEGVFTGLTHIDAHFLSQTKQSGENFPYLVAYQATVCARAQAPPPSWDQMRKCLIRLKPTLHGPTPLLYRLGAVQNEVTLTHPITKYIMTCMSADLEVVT
Chain of HCV NS3/4A protease (P27958 1658-1711): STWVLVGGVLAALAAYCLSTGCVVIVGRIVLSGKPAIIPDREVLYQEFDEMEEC
Description: An aliquot (2 μl) of test compounds dissolved in DMSO was added to each well of a 384-well black Assay plate, followed by addition of 8 μl of HCV NS3/4A protease solution (0.5 μg/ml). The reaction was initiated by adding 10 μl of freshly diluted substrate (100× dilution of a DMSO stocking solution). The mixture was incubated at room temperature for 30 min, and the fluorescence intensity was measured at 485 nm for excitation and 535 nm for emission by a TECAN GENios plate reader. […] All fluorescence values were corrected with a substrate blank. Samples were assayed at different concentrations to plot a concentration VS. inhibition percentage curve, and IC50 values were obtained from the curve for each sample. A known HCV protease inhibitor, embelin, was used as a reference. Discussion

[3] = system: COX-2; assay: COX-2 protein expression in LPS-stimulated RAW 264.7 macrophages (western blot); format: cell-based, murine; conditions: LPS 100 ng/ml, RAW 264.7, western blot
Description: RAW 264.7 cells were cultured in Rosewell Park Memorial Institute (RPMI) 1640 media (without phenol red) supplemented with 10% endotoxin-free, heat-inactivated fetal calf serum, 100 units/ml penicillin, and 100 μg/ml streptomycin. When the cells reached a density of 2-3×10^6 cells/ml, they were activated by incubation in a medium containing E. coli lipopolysaccharide (LPS) (100 ng/ml). Various concentrations of compounds of the disclosure in dimethyl sulphoxide (DMSO) were added together with LPS. Cells were treated with 0.05% DMSO as the vehicle control. The stimulated murine macrophage cell line RAW 264.7 cells were washed with PBS and lysed in an ice-cold RIPA buffer (Tris-HCl, pH 7.2, 25 mM; 0.1% SDS; 1% Triton X-100; 1% sodium deoxycholate; 0.15 M NaCl; 1 mM EDTA) containing 1 mM phenylmethyl sulphonyl fluoride (PMSF), 10 μg/mL aprotinin, 1 mM sodium ortho-vanadate, and 5 μg/mL leupeptin. Protein concentrations were determined using the BCA method (Pierce, Rockford, Ill.). The samples (50 μg of protein) were mixed with 5-fold of sample buffer containing 0.3 M Tris-HCl (pH 6.8), 25% 2-mercaptoethanol, 12% sodium dodecyl sulphate (SDS), 25 mM EDTA, 20% glycerol, and 0.1% bromophenol blue. The mixtures were boiled at 100° C. for 5 min, prerun on a stacking gel, and then resolved by 12% SDS-polyacrylamide minigels at a constant current of 20 mA. For western blot, proteins on the gel were electro-transferred onto a […] immobile polyvinylidene fluoride (PVDF) membrane with a transfer buffer composed of 25 mM Tris-HCl (pH 8.9), 192 mM glycine, and 20% methanol, as described by Pan et al. (2000). Membrane blocking was then carried out at room temperature for 1 h in blocking solution (20 mM Tris-HCl pH 7.4, 125 mM NaCl, 0.2% Tween 20, 1% bovine serum albumin, and 0.1% sodium azide). The membrane was incubated with the primary antibody of iNOS and COX-2 at 4° C. overnight. The membranes were subsequently probed with selected IgG antibody conjugated to horseradish peroxidase (Transduction Laboratories, Lexington, Ky.) and visualized using enhanced chemiluminescence (ECL, Amersham). The densities of the bands were quantitated using a densitometer (AlphaImager 2200 System). All the membranes were stripped and reprobed for β-actin (Sigma Chemical Co., St. Louis, Mo.) as loading control. […] The inhibition of iNOS induction by compounds of the disclosure may be due to down regulation of iNOS gene expression. EGCG and compounds of the disclosure with antioxidant activities may inhibit the ROS/RNS-mediated activation of NF-κB, the transcription factor that promotes gene expression of iNOS. […] The difference in their ability to inhibit production of iNOS and COX-2 may be due to other mechanisms involved in addition to blocking the NF-κB signalling pathway. EGCG and its derivatives may also suppress the cytokine production by breaking down the mRNA and protein of iNOS and COX-2 to varied degrees. (7b) Inhibition Against LPS-Induced NO Production in RAW 264.7 Macrophage The LPS-induced NO production by the macrophages was determined as nitrite concentration in the culture medium according to the Griess reaction. The culture medium of the control and treated cells was collected and centrifuged. An aliquot (100 μL) of the supernatant was mixed with an equal volume of Griess reagent. The absorbance of the mixture at 550 nm was measured with an ELISA plate reader (Dynatech MR-7000; Dynatech Laboratories, Chantilly, Va., USA). […]

Row | pIC50 [2] | HCV protease inhibitory activity relative to embelin [2] | SMILES | Protection Factor (PF) [1] | Inhibition of COX-2 protein expression [3]
1 | 6.89 | approximately 80 fold | CCCCCCCCCCCCCCCCCC(=O)Oc1cc(C(=O)OC2Cc3c(O)cc(O)cc3OC2c2cc(OC(=O)CCCCCCCCCCCCCCCCC)c(O)c(OC(=O)CCCCCCCCCCCCCCCCC)c2)cc(OC(=O)CCCCCCCCCCCCCCCCC)c1O (stereo not drawn) [Compound 1a, EGCG stearate] | 2.38 | decreased in the order of 1a>1b>EGCG>1c
2 | 8.22 | 1700 fold | CCC=CCC=CCC=CCC=CCC=CCCCC(=O)Oc1cc(C(=O)OC2Cc3c(O)cc(O)cc3OC2c2cc(OC(=O)CCCC=CCC=CCC=CCC=CCC=CCC)c(O)c(OC(=O)CCCC=CCC=CCC=CCC=CCC=CCC)c2)cc(OC(=O)CCCC=CCC=CCC=CCC=CCC=CCC)c1O (stereo not drawn) [Compound 1b] | 0.82 | decreased in the order of 1a>1b>EGCG>1c
3 | 8.22 | 1700 fold | CCC=CCC=CCC=CCC=CCC=CCC=CCCC(=O)Oc1cc(C(=O)OC2Cc3c(O)cc(O)cc3OC2c2cc(OC(=O)CCC=CCC=CCC=CCC=CCC=CCC=CCC)c(O)c(OC(=O)CCC=CCC=CCC=CCC=CCC=CCC=CCC)c2)cc(OC(=O)CCC=CCC=CCC=CCC=CCC=CCC=CCC)c1O (stereo not drawn) [Compound 1c] | 0.77 | decreased in the order of 1a>1b>EGCG>1c

Row | SMILES | pIC50 [2] | HCV protease inhibitory activity relative to embelin [2] | Protection Factor (PF) [1] | Inhibition of COX-2 protein expression [3]
4 | O=C(O[C@@H]1Cc2c(O)cc(O)cc2O[C@@H]1c1cc(O)c(O)c(O)c1)c1cc(O)c(O)c(O)c1 [EGCG, Epigallocatechin gallate, reference compound] | < 3.70 |  | 1.40 | decreased in the order of 1a>1b>EGCG>1c
